Source: US7919488B2, “Therapeutic compounds” (Pfizer Inc., priority 2006, dated 2011)

Legend:
Format in all cases: biochemical
[1] = biological target: T1, CYP3A4 (Homo sapiens, UniProt P08684); assay: IC50 against CYP3A4 by inhibition of midazolam metabolism in human liver microsomes; conditions: 0.1 mg/mL human liver microsomes, 2 μM midazolam, 1 mM NADPH, 1-hydroxymidazolam production, eight minutes; read-out: IC50, μM (HLM, midazolam)
T1 construct: 0.1 mg/mL human liver microsomes; from tissue; host or cells: human liver microsomes
Protocol: 3. Determination of IC50 Against CYP3A4 by Measurement of Inhibition of Midazolam Metabolism
This assay was performed using a standard 96 well plate design. […] The incubation substrate mix contains 2 μM midazolam, 0.1 mg/mL human liver microsomes, 1 mM NADPH, and potassium phosphate buffer (100 mM, pH 7.4). Quantitation of metabolite peak area ratio against internal standard is determined by LC-MS/MS analysis. The production of 1-hydroxymidazolam from midazolam metabolism is determined after incubation for eight minutes by comparison to a standard curve generated for the metabolite.
(§1) Samples were analyzed in the MRM mode using a Sciex API 3000 mass spectrometer (Applied Biosystems, Foster City, Calif.) with a Paradigm MS4 binary pump (Michrom BioResources Inc., Auburn, Calif.) and a LEAP CTC PAL autosampler (LEAP Technologies, Carrboro, N.C.). A Phenomenex Synergi, 4μ, Polar-RP, 10×2.0 mm column (Phenomenex, Torrance, Calif.) was used for separation with a mobile phase composition of: 0.1% formic acid in water (A) and: 0.1% formic acid in methanol (B). The following gradient was used: […]
(§2) The sample injection volume was 10 μL and flow was split post-column with 0.4 mL/min going to the mass spectrometer. Analysis was performed using the following API 3000 mass spectrometer settings: […]

[2] = biological target: T1, CYP3A4; assay: IC50 against CYP3A4 by inhibition of testosterone metabolism in human liver microsomes; conditions: 0.1 mg/mL human liver microsomes, 25 μM testosterone, 1 mM NADPH, 6-β-OH-testosterone production, eight minutes; read-out: IC50, μM (HLM, testosterone)
Protocol: 2. Determination of IC50 Against CYP3A4 by Measurement of Inhibition of Testosterone Metabolism
This assay was performed using a standard 96 well plate design. […] Quantitation of metabolite peak area ratio against an internal standard is determined by LC-MS/MS analysis. The production of 6-β-OH-testosterone from testosterone metabolism is determined after incubation for eight minutes by comparison to a standard curve generated for the metabolite
as §1, §2

[3] = biological target: T2, recombinant CYP3A4-b5 enzyme (Baculosomes®) (Homo sapiens, UniProt P08684); assay: Kiapp against recombinant CYP3A4 enzyme (Baculosomes), BFC substrate; conditions: recombinant CYP3A4-b5 (Invitrogen), 5 uM BFC, 200 uM NADPH, pre-incubation at least 30 minutes, pH 7.0, room temperature
T2 construct: purchased Invitrogen (Carlsbad, Calif.)
Protocol: 1. Determination of Compound Kiapp
A determination of the Kiapp of the compounds of the invention against recombinant CYP3A4 enzyme was performed as follows. The assay was performed in a 100 mM sodium phosphate buffer pH 7.0, 5 mM TCEP and containing 2% dimethylformamide (final concentration) upon addition of substrate and inhibitor. A typical reaction for the determination of Kiapp values was carried at room temperature in a solid black Costar u-bottom 96-well polypropylene plate. […] When pre-incubation was completed (˜30 min), the reaction was initiated by adding NADPH (200 uM, final concentration), and 7-benzyloxy-4-(trifluoromethyl)-coumarin (BFC) (5 uM, final concentration). The oxidation of the coumarin substrate was recorded by a 96-well plate reader POLARstar (BMG LABTECH, Offenburg, Germany).
The initial reaction velocities were measured during the first 5 min of the reaction when the release of the fluorescent product is linear with time, in the absence and in the presence of various concentrations of inhibitors.
The fluorescent substrate BFC was purchased from Sigma (St Louis, Mo.). Two commercial sources of recombinant enzymes were used in this study: recombinant CYP3A4-b5 enzyme (Baculosomes®) was purchased from Invitrogen (Carlsbad, Calif.) and the recombinant CYP3A4+b5 enzyme (Supersomes®) was purchased from BD Biosciences (Woburn, Mass.).

T2 sequence (P08684 whole entry): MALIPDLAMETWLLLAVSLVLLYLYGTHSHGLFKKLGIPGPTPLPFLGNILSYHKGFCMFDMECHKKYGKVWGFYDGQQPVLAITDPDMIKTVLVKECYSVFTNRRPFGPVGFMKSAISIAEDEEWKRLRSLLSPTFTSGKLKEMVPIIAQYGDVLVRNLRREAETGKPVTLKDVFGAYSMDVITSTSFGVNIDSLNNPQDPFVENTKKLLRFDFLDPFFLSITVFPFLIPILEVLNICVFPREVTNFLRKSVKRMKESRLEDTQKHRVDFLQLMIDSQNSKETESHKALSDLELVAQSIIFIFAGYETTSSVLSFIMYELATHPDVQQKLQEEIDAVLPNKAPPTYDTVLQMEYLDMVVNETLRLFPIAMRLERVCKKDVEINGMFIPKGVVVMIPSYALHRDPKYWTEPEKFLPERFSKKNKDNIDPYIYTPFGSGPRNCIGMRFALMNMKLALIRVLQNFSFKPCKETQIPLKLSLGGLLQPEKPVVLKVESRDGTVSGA
T1 sequence (P08684 whole entry): as above

Row | IC50 [1] [µM] | IC50 [2] [µM] | Ki [3] [µM] | Structure (SMILES)
1 | 0.012 | 0.023 | 0.107 | CCS(=O)(=O)NC1CCN(C(=O)Cn2nc(-c3ccncc3)cc2Cc2ccc(F)cc2)CC1 [Example 102, N-(1-(2-[5-(4-fluorobenzyl)-3-pyridin-4-yl-1H-pyrazol-1-yl]acetyl}piperidin-4-yl)ethanesulfonamide]
2 | < 0.013 | < 0.0225 | 0.0227 | O=C(Cn1nc(-c2ccncc2)cc1Cc1ccc(F)cc1)N[C@H]1CC[C@H](O)CC1 [Example 96, 2-[5-(4-fluorobenzyl)-3-pyridin-4-yl-1H-pyrazol-1-yl]-N-(trans-4-hydroxycyclohexyl)-acetamide]
3 | 0.045 | < 0.012 | 0.232 | O=C(Cn1nc(-c2ccncn2)cc1Cc1ccc(F)cc1)N1CCN(c2ccccn2)CC1 [Example 97, 4-{5-(4-fluorobenzyl)-1-[2-oxo-2-(4-pyridin-2-ylpiperazin-1-yl)ethyl]-1H-pyrazol-3-yl}pyrimidine]
4 | – | 0.023 | 0.0782 | CCNC(=O)NC1CCN(C(=O)Cn2nc(-c3ccncc3)cc2Cc2ccc(F)cc2)CC1 [Example 106, 1-ethyl-3-(1-{[5-(4-fluorobenzyl)-3-pyridin-4-yl-1H-pyrazol-1-yl]acetyl}piperidin-4-yl)urea]
5 | – | 0.046 | 0.106 | CC(C)C(=O)NC1CCN(C(=O)Cn2nc(-c3ccncc3)cc2Cc2ccc(F)cc2)CC1 [Example 104, N-(1-{[5-(4-fluorobenzyl)-3-pyridin-4-yl-1H-pyrazol-1-yl]acetyl}piperidin-4-yl)-2-methylpropanamide]
6 | – | 0.036 | 0.0643 | CC(=O)N(C)C1CCN(C(=O)Cn2nc(-c3ccncc3)cc2Cc2ccc(F)cc2)CC1 [Example 109, N-(1-{[5-(4-fluorobenzyl)-3-pyridin-4-yl-1H-pyrazol-1-yl]acetyl}piperidin-4-yl)-N-methylacetamide]
7 | – | 0.029 | 0.165 | CNC(=O)NC1CCN(C(=O)Cn2nc(-c3ccncc3)cc2Cc2ccc(F)cc2)CC1 [Example 107, 1-(1-{[5-(4-fluorobenzyl)-3-pyridin-4-yl-1H-pyrazol-1-yl]acetyl}piperidin-4-yl)-3-methylurea]
8 | – | 0.036 | 0.055 | COC(=O)NC1CCN(C(=O)Cn2nc(-c3ccncc3)cc2Cc2ccc(F)cc2)CC1 [Example 105, methyl (1-{[5-(4-fluorobenzyl)-3-pyridin-4-yl-1H-pyrazol-1-yl]acetyl}piperidin-4-yl)carbamate]
9 | – | 0.241 | 0.0881 | O=C(Cn1nc(-c2c[nH]cn2)cc1Cc1ccc(F)cc1)N1CCN(c2ncccn2)CC1 [Example 108, 2-(4-{[5-(4-fluorobenzyl)-3-(1H-imidazol-4-yl)-1H-pyrazol-1-yl]acetyl}piperazin-1-yl)pyrimidine]
10 | – | 0.016 | 0.0158 | CCS(=O)(=O)N(C)C1CCN(C(=O)Cn2nc(-c3ccncc3)cc2Cc2ccc(F)cc2)CC1 [Example 110, N-(1-{[5-(4-fluorobenzyl)-3-pyridin-4-yl-1H-pyrazol-1-yl]acetyl}piperidin-4-yl)-N-methylethane-sulfonamide]

Continued, compound first:

Row | Structure (SMILES) | IC50 [1] [µM] | IC50 [2] [µM] | Ki [3] [µM]
11 | Cc1noc(CCNC(=O)Cn2nc(-c3ccncc3)cc2Cc2ccc(F)cc2)n1 [Example 91, 2-[5-(4-fluorobenzyl)-3-pyridin-4-yl-1H-pyrazol-1-yl]-N-[2-(3-methyl-1,2,4-oxadiazol-5-yl)ethyl]acetamide] | 0.019 | 0.018 | 0.112
12 | CC(C)(N)CNC(=O)Cn1nc(-c2ccncc2)cc1Cc1ccc(F)cc1 [Example 57, N-(2-amino-2-methylpropyl)-2-[5-(4-fluorobenzyl)-3-pyridin-4-yl-1H-pyrazol-1-yl]acetamide] | 0.064 | 0.062 | 0.124
13 | CN(C(=O)C1CC1)C1CCN(C(=O)Cn2nc(-c3ccncc3)cc2Cc2ccc(F)cc2)CC1 [Example 13, N-(1-{[5-(4-fluorobenzyl)-3-pyridin-4-yl-1H-pyrazol-1-yl]acetyl}piperidin-4-yl)-N-methylcyclopropanecarboxamide] | < 0.00346 | 0.009 | 0.0111
14 | CC(C)NC1CCN(C(=O)Cn2nc(-c3ccncc3)cc2Cc2ccc(F)cc2)CC1 [Example 9, 1-{[5-(4-fluorobenzyl)-3-pyridin-4-yl-1H-pyrazol-1-yl]acetyl}-N-isopropylpiperidin-4-amine] | – | 0.056 | 0.202
15 | OCCn1nc(-c2ccncc2)cc1Cc1ccc(F)cc1 [Example 29, 2-[5-(4-fluorobenzyl)-3-pyridin-4-yl-1H-pyrazol-1-yl]ethanol] | – | 0.054 | 0.159
16 | Fc1ccc(Cc2cc(-c3ccncc3)nn2Cc2nc(-c3ncccn3)no2)cc1 [Example 25, 2-(5-{[5-(4-fluorobenzyl)-3-pyridin-4-yl-1H-pyrazol-1-yl]methyl}-1,2,4-oxadiazol-3-yl)pyrimidine] | 0.045 | < 0.012 | 0.0568
17 | CCn1ccnc1CNC(=O)Cn1nc(-c2ccncc2)cc1Cc1ccc(F)cc1 [Example 79, N-[(1-ethyl-1H-imidazol-2-yl)methyl]-2-[5-(4-fluorobenzyl)-3-pyridin-4-yl-1H-pyrazol-1-yl]acetamide] | 0.016 | 0.019 | 0.052
18 | O=C(Cn1nc(-c2ccncc2)cc1Cc1ccc(F)cc1)N1CCNCC1 [Example 62, 1-{[5-(4-fluorobenzyl)-3-pyridin-4-yl-1H-pyrazol-1-yl]acetyl}piperazine] | 0.047 | 0.111 | 0.604
19 | OCCn1nc(Cc2ccc(F)cc2)cc1-c1ccncc1 [Example 30, 2-[3-(4-fluorobenzyl)-5-pyridin-4-yl-1H-pyrazol-1-yl]ethanol] | 0.773 | 0.446 | 0.646
20 | Fc1ccc(Cc2cc(-c3ccncc3)nn2Cc2nc(N3CCOCC3)no2)cc1 [Example 70, 4-(5-{[5-(4-fluorobenzyl)-3-pyridin-4-yl-1H-pyrazol-1-yl]methyl}-1,2,4-oxadiazol-3-yl)morpholine] | 0.019 | < 0.012 | 0.0238
21 | O=C(Cn1nc(-c2ccncc2)cc1Cc1ccc(F)cc1)N1CCC[C@H]1CO [Example 77, [(2S)-1-{[5-(4-fluorobenzyl)-3-pyridin-4-yl-1H-pyrazol-1-yl]acetyl}pyrrolidin-2-yl]methanol] | 0.0511 | 0.0545 | 0.166
22 | Cc1noc(Cn2nc(-c3ccncc3)cc2Cc2ccc(F)cc2)n1 [Example 59, 4-{5-(4-fluorobenzyl)-1-[(3-methyl-1,2,4-oxadiazol-5-yl)methyl]-1H-pyrazol-3-yl}pyridine] | 0.0944 | 0.0665 | 0.142
23 | C[C@H](CO)NC(=O)Cn1nc(-c2ccncc2)cc1Cc1ccc(F)cc1 [Example 94, 2-[5-(4-fluorobenzyl)-3-pyridin-4-yl-1H-pyrazol-1-yl]-N-[(1R)-2-hydroxy-1-methylethyl]acetamide] | – | 0.022 | 0.112
24 | O=C(NC1CCN(C(=O)Cn2nc(-c3ccncc3)cc2Cc2ccc(F)cc2)CC1)C1CCC1 [Example 18, N-(1-{2-[5-(4-fluorobenzyl)-3-pyridin-4-yl-1H-pyrazol-1-yl]acetyl}piperidin-4-yl)cyclobutanecarboxamide] | – | 0.018 | 0.0706
25 | O=C(Cn1nc(-c2ccncc2)cc1Cc1ccc(F)cc1)NCCc1cnccn1 [Example 78, 2-[5-(4-fluorobenzyl)-3-pyridin-4-yl-1H-pyrazol-1-yl]-N-(2-pyrazin-2-ylethyl)acetamide] | – | 0.04 | 0.0834
26 | COC(=O)Cn1nc(-c2ccncc2)cc1Cc1ccc(F)cc1 [Example 2, methyl [5-(4-fluorobenzyl)-3-pyridin-4-yl-1H-pyrazol-1-yl]acetate] | – | 0.956 | 0.13
